Experimental data as given in patent US11312758B2, “Peptides with vasodilatory and/or diuretic functions” (National University of Singapore, priority 2016, dated 2022).
Values joined by “and” are separate entries in the source; they are usually repeats but may differ in a detail not shown here. Equal entries are not always repeated. Positions of bridges follow the written chain, without caps; N, C: chain ends. Residues, ends and D or L forms follow the SMILES beside them.

Tests used:
rat NPR-A [1] = target: T1, rat NPR-A (Rattus norvegicus, UniProt P18910); assay: Time-chase study of cGMP accumulation (NPR-A activation kinetics) at EC50 concentration of peptide; assay type: cell-based
T1 construct: expressed in transfected cells; host or cells: CHO-K1
T1 sequence (P18910 29-1057): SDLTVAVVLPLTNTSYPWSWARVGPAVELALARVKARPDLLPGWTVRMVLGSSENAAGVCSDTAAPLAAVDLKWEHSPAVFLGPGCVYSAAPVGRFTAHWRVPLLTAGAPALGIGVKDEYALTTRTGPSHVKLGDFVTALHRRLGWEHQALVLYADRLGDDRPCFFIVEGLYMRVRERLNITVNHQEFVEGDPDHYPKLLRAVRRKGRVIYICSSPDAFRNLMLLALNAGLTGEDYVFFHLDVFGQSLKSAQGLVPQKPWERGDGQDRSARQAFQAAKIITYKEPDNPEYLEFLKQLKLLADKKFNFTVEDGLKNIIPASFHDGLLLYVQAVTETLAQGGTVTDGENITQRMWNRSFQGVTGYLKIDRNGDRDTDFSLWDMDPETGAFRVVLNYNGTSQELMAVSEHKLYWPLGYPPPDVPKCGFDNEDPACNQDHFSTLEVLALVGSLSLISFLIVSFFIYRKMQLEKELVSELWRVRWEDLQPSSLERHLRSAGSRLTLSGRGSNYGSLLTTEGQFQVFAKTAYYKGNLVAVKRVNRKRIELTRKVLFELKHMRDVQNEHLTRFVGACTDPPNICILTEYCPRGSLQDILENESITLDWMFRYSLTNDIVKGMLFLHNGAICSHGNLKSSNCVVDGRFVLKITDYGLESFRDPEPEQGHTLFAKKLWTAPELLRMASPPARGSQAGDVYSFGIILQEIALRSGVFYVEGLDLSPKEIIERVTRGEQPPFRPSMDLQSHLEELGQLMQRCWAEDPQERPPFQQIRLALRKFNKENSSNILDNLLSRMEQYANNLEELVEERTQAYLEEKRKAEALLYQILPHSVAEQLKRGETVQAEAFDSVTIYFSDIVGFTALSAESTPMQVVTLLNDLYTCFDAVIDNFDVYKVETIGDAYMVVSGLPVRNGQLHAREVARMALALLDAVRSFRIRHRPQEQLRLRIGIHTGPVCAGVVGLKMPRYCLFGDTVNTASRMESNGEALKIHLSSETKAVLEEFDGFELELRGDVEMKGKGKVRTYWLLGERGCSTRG
Protocol: (§1) The experiments were performed as described in Sridharan et al., [Biochem J 469 (2): 255-66 (2015)]. Dulbecco's modified Eagle's medium supplemented with 10% fetal bovine serum, 100 U/ml penicillin and 100 μg/ml streptomycin and 2 mM glutamine was used to grow CHO-K1 cells in a humidified incubator at 37° C. with 5% CO2. The cells were maintained by sub-culturing using 0.5% trypsin every three days. Cells (1×10^5) were seeded per well in 24-well plate and grown for 16 h. Cells in each well were transfected with 0.8 μg of plasmid encoding rat NPR-A using 2 μl of Lipofectamine™ 2000 transfection reagent. Cells were treated with the peptides 24 h after transfection.
Time-chase study was performed by treating the cells with EC50 concentration of the peptides. The reactions were terminated at the indicated time-points (0, 2, 5, 10, 20 and 30 min) by treating the cells with 0.1 N HCl. The cGMP concentration in the cell lysate was measured using cGMP ELISA kit (Enzo life sciences).

[2] = system: anesthetized male SD rats; assay: In-vivo activity assay: peptide infusion in anesthetized rats (MAP, HR, PP, urine flow); parameters: species or system rat
Protocol: Male Sprague-Dawley (SD) rats (220-280 g) were obtained from Invivos, Singapore. Animals were acclimatized in the Animal Holding unit, NUS for 3 days before the experiment. The experiments were conducted under the guidance and approval of Institutional Animal Care and Use Committee, NUS (041/12).
The experiments were performed as described in Sridharan et al., [Biochem J 469 (2): 255-66 (2015)]. In brief, animals were anesthetized with sodium pentobarbital (60-70 mg/kg) and catheters were inserted in femoral artery, vein and urinary bladder. The body temperature of the animals was maintained using a thermostatic heat pad at 37° C. Continuous infusions (2 ml/h) of 0.2% BSA saline (with or without peptide) was administered through the femoral vein while a pressure transducer attached to the femoral artery recorded on-line changes in mean arterial pressure (MAP), heart rate (HR) and pulse pressure (PP). Urine was collected and the volume was measured after every 10 min. Experiments encompassed control (2×10 min), experimental (1×10 min) and recovery (4×10 min) periods. All animals were euthanized at the end of the experiment in carbon-di-oxide chambers.

rat NPR-A [3] = target: T1, rat NPR-A; assay: Whole cell cGMP assay, 30 min end-point dose-response in CHO-K1 cells transiently expressing NPR-A; assay type: cell-based
Protocol: as §1
NPR-A transfected CHO-K1 cells were treated with varying concentrations of peptides (10 nM to 10 μM dissolved in basal media containing 0.5 mM IBMX) for 30 min. The end-point accumulation of cGMP was measured after cell-lysis with 200 μl of 0.1 N HCl using Enzo life sciences cGMP ELISA kit (manufacturer's protocol).

In the case of `CC[C@H](C)[C@@H]1NC(=O)[C@H](CC(=O)O)NC(=O)[C@H](CO)NC(=O)[C@H]([C@@H](C)O)NC(=O)[C@H](Cc2c[nH]cn2)NC(=O)[C@H](CO)NC(=O)[C@H]([C@@H](C)CC)NC(=O)[C@H](CCCNC(=N)N)NC(=O)[C@H](CC(=O)O)NC(=O)[C@H]([C@@H](C)CC)NC(=O)[C@H](CCCNC(=N)N)NC(=O)[C@H](CCCNC(=N)N)NC(=O)CNC(=O)[C@H](Cc2ccccc2)NC(=O)[C@@H](NC(=O)[C@H](CO)NC(=O)[C@@H](NC(=O)[C@H](CC(C)C)NC(=O)[C@H](CC(C)C)NC(=O)CN)[C@@H](C)CC)CSSC[C@@H](C(=O)N[C@@H](CCCNC(=N)N)C(=O)N[C@@H](Cc2c[nH]cn2)C(=O)O)NC(=O)CNC1=O` [^GRDK-Ring] (H-GLLISCFGRRIDRISHTSDIGCRH-OH; disulfide 6-22; N-terminus and C-terminus assumed), the “Rate of generation of cGMP, Ratio compared ANP” value (rat NPR-A [1]) is reported as 70.5, the “Rate of generation of cGMP, Ratio compared wild type NPs” value (rat NPR-A [1]) is reported as 5.0 and the “Rate of generation of cGMP” value (rat NPR-A [1]; EC50 concentration of peptide) is reported as 0.113 pmol cGMP/pmol peptide. For the same compound, the “rate of generation of cGMP compared to K-Ring” value (rat NPR-A [1]; EC50 concentration of peptide) was “slightly increased rate of cGMP production”, the “time of peak / maximum accumulation of cGMP” value (rat NPR-A [1]; EC50 concentration of peptide) was 10 min and the “HR Rate of change per unit change in MAP” value ([2]; 2 nmol/kg/min infusion) was 2.82. For the same compound, the “PP Rate of change per unit change in MAP” value ([2]; 2 nmol/kg/min infusion) was 0.7, the “Heart rate Peak response” value ([2]; 2.0 nmol/kg/min infusion) was −44.8±20.2 BPM and −44.8 ± 20.1 BPM and the “Heart rate Peak time” value ([2]; 2.0 nmol/kg/min infusion) was 30 min. For the same compound, the “Mean arterial pressure Peak response” value ([2]; 2.0 nmol/kg/min infusion) was −11.3 ± 4.3 mmHg, the “Mean arterial pressure Peak time” value ([2]; 2.0 nmol/kg/min infusion) was 30 min and the “Pulse pressure Peak time” value ([2]; 2.0 nmol/kg/min infusion) was 20 min. For the same compound, the “Urine flow rate Peak response” value ([2]; 2.0 nmol/kg/min infusion) was <2 µL/min, the “NPR-A activation potency, Ratio compared ANP” value (rat NPR-A [3]) was 2.9 and the “fold higher potency compared to K-Ring” value (rat NPR-A [3]; cGMP response) was 5 fold. For the same compound, the “NPR-A activation potency, Ratio compared wild type NPs” value (rat NPR-A [3]; negative = more potent than wild type) was −4.8.
